Consider 16 molecules from patent US20250382330A1, “IMMUNOLOGICALLY ACTIVE POLYPEPTIDE” (CDRES PHARMA LLC, priority 2022, published 2025).

The nature of data set [1]: Solubility of peptideX2-13 modifications in aqueous buffer. Format: physicochemical. The note with it: for solubility, comparative: modification (10) vs peptideX2-13, modification (11) vs (10), reversed core sequence. The procedure:
Various modifications of peptideX2-13 were tested for solubility (see Table 2).

Data set [2] can be described thus: Tolerability / adverse effects of intravenous dosing in the Lewis rat RA model. The format is in vivo. The note with it: for adverse effects: 500 μg/ml, intravenous. Here is the method: On day 15, the rats were divided into treatment groups and were dosed intravenously on a daily basis for the next 15 days (except as noted) with the pentide YLQMN (SEQ ID NO: 5)-containing PeptideX2 (SEQ ID NO: 1) to achieve final circulating concentrations of PeptideX2 peptide as follows: 0 μg/ml (vehicle control: 0.2% acetic acid-Dulbecco's phosphate buffered saline (PBS-D), pH 6.0); 100 μg/ml vehicle; 200 μg/ml vehicle, and 500 μg/ml vehicle per rat/per day. As a positive control for anti-inflammatory activity, daily dosing of a control rat with prednisolone at 10 mg/kg/day was used. The arthritis index was calculated daily for each viable rat throughout the 30-day study.
B. Stability, aggregation, and toxicity of the pentide YLQMN (SEQ ID NO: 5)-containing polypeptides PeptideX2 (SEQ ID NO: 1) and G2-PeptideX2 (SEQ ID NO: 2).
Eleven Lewis rats were prepared using the collagen induced arthritis protocol. At day 15 thru day 30, three rats were given daily dosing of PeptideX2-13 (SEQ ID NO: 3) at 100 μg/ml, three rats were given daily dosing of PeptideX2-13 (SEQ ID NO: 3) at 250 μg/ml, and three rats were given daily dosing of PeptideX2-13 (SEQ ID NO: 3) at 500 μg/ml; as a positive control group, two rats were given prednisolone at 10 mg/kg/day.
The rats were weighed, scored for signs of arthritis and assigned to various treatment groups of one or more rats to each group. For the prednisolone control group, 200.85 mg prednisolone 21-hemisuccinate sodium salt (Sigma, Cat. P4153) was dissolved in 15 ml de-ionized water to prepare a 10 mg/ml solution which was stored at 4-8° C. when not in use. Rats in the study groups were dosed daily from day 15 through day 30 according to the formula for which a rat weighing (g)×64 ml/1000 g (represents the total blood volume) multiplied by the test product dose/test product concentration to determine the total volume to be injected into the animal per day to achieve that desired estimated blood concentration. Rats were weighed and scored daily during the treatment phase of the experiment and the results recorded and reported.

In data set [3] the test system is collagen-induced arthritis in Lewis rats. As to the kind of experiment: Collagen-induced arthritis in Lewis rats, daily arthritis index. The format is in vivo, Lewis rat. The note with it: positive control, 10 mg/kg/day. Here is the method:
A. Collagen-Induced Lewis Rat Model of Rheumatoid Arthritis (RA)-PeptideX2 (SEQ ID NO: 1). The Lewis rat system is an art-accepted in vivo animal model of collagen-induced rheumatoid arthritis. Lewis rats obtained from a commercial laboratory supply vendor were maintained during a quarantine period under standard animal care conditions and found to be free of any clinical signs of disease or distress. Bovine type II collagen (10 mg, Chondrex, Inc., Redmond, WA) was dissolved in 2.5 ml 0.1M acetic acid and stirred overnight at 4-8° C. in the dark, and then one ml of this collagen solution was emulsified in one ml of incomplete Freund's adjuvant (ICFA, Sigma, St. Louis, MO) on an ice bath. On day zero, each of five rats was injected with 0.2 ml of collagen/ICFA emulsion at two sites and then observed for the next 30 days with the arthritis index (AI) calculated daily using the 16-point scoring method of Bevaart et al. (2010 Meths. Mol. Biol. 602:181: 0 points, no joint swelling or edema; 1 point, slight edema and erythema limited to foot and/or ankle; 2 points, edema and erythema in the toes and most ankle joints; 3 points, severe edema and erythema in the paw below the ankle joint; 4 points, edema and erythema of all four paws including the ankle joint). […]
6 Lewis rats (ENVIGO, female, 190-210g) were received, individually examined, and housed. […] Rat weights were recorded daily. […]

The conditions of data set [4]: first renal transplantations, cited from earlier work.
The target of data set [5] is T1, human TLR2 (human, UniProt O60603 21-784).
T1 construct: whole, on cells; Expressed in HEK293 NF-κB/SEAP reporter cells; also called hTLR2; toll-like receptor 2
Briefly: NF-κB SEAP reporter on human TLR panel; binding inferred from reporter activity.

In data set [6] the target is T1, human TLR2. Briefly: NF-κB SEAP reporter in HEK293 cells expressing human TLR2, 200 µg/ml (FIG. 6); binding inferred from reporter activity. Here is the method: Human Toll-like receptor ligand screening was performed using test samples containing a peptide of interest at 200 μg/ml. The general procedure consisted of testing for NF-κB activation in HEK293 cells expressing a given TLR. The samples were tested against seven different human TLRs (TLR2, 3, 4, 5, 7, 8, 9). The media added to the wells were designed for the detection of NF-κB induced SEAP (secreted embryonic alkaline phosphatase) expression. After 16-24 hours of incubation, the optical density (OD) was read at 650 nm on a Molecular Devices SpectraMax 340PC absorbance detector.

Setting [7] is: buffer (0.2% acetic acid, 0.375M Hepes, 0.375% glycerol, pH 7), no concentration stated.

“Also recorded” adds a separate entry of the source. Like-named read-outs stand apart in the source and are kept apart here. Ends that are not written are not given here.

T1 sequence (O60603 21-784): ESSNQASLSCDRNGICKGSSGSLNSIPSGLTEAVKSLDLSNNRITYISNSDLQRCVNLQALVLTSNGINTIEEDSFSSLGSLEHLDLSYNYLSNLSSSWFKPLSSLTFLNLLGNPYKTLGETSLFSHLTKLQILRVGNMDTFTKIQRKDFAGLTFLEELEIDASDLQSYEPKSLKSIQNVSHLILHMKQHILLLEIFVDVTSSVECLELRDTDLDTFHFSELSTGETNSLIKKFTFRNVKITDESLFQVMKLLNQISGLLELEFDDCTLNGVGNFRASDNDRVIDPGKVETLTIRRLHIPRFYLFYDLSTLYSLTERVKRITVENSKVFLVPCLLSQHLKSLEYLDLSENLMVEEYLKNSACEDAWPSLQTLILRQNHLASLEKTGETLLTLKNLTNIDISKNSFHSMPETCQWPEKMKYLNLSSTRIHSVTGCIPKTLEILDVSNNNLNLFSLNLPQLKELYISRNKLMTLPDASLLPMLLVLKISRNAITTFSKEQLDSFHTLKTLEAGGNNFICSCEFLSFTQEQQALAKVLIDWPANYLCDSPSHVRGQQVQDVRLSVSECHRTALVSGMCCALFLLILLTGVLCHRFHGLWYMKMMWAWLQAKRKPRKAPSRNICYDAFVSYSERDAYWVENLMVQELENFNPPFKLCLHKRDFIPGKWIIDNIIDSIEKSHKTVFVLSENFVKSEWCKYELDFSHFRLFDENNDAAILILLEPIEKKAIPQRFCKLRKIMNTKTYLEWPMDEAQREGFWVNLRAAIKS

On to GKYLQMNKG [SEQ ID NO: 22], for which the Solubility result in data set [1] (buffer, at 2 mg/ml) is “Soluble in buffer”. GRSSANMQLYASSRG [modification (11)]: the Solubility entry in data set [1] (at 5 mg/ml concentration) was “Insoluble at”. Moreover, the “solubility, comparative” value in data set [1] is on record as “no significant difference”.

GKAAYLQMNAAKG [PeptideX2-13]: in data set [2] (summary statement), the “tolerability in animal model compared with PeptideX2” value was “tolerated and not toxic at a certain higher concentrations than was the case for previously described PeptideX2”. In data set [1] (setting [7]), the Solubility result is given as “Soluble in buffer”. On to GRSSAYLQMNASSRG [modification (10)], for which the Solubility entry in data set [1] (at 5 mg/ml concentration) is listed as “Insoluble at”. In addition, in data set [1], the “solubility, comparative” value was “less solubility compared to peptideX2-13”.

With PKAAYLQMNAAKP [SEQ ID NO: 12], the Solubility result in data set [1] (buffer, at 2 mg/ml) is recorded as “Soluble in buffer”. Take GYLQMNG [modification (7), GYLQMNG]: in data set [1] (setting [7]), the Solubility entry is recorded as “insoluble in aqueous buffer”. Turning to YLQMN [pentide, YLQMN], the adverse effects result in data set [2] is given as “No adverse effects”. Consider GKAANMQLYAAKG [SEQ ID NO: 17], for which the Solubility result in data set [1] (buffer, at 2 mg/ml) is “Soluble in buffer”. For the molecule `C[C@]12C=CC(=O)C=C1CC[C@@H]1[C@@H]2[C@@H](O)C[C@@]2(C)[C@H]1CC[C@]2(O)C(=O)CO` [prednisolone], the arthritis index entry in data set [3] is “potent and sustained reduction of the arthritis index; also recorded: decreased”. As to “KSIAYLQMNSLK [PeptideX2, reference compound]”, the adverse effects result in data set [2] is “went into respiratory distress and died immediately”. For the same molecule, the “outcome (death)” value in data set [2] (single IV dose to achieve 300 μg/ml, thirty-eight minutes after injection) is “went into convulsions again and died”. Turning to `Cn1cnc([N+](=O)[O-])c1Sc1ncnc2nc[nH]c12` [AZA, azathioprine], the graft survival rate is given as 56% in data set [4] (5 years post-transplant) and 46% in data set [4] (10 years post-transplant). Consider `C=CC[C@@H]1/C=C(\C)C[C@H](C)C[C@H](OC)[C@H]2O[C@@](O)(C(=O)C(=O)N3CCCC[C@H]3C(=O)O[C@H](/C(C)=C/[C@@H]3CC[C@@H](O)[C@H](OC)C3)[C@H](C)[C@@H](O)CC1=O)[C@H](C)C[C@@H]2OC` [TAC, tacrolimus], for which the values for the graft survival rate in data set [4] (5 years post-transplant) and in data set [4] (10 years post-transplant) were 77% and 60%, respectively. In the case of “GRAAYLQMNAARG [K2R/K12R-substituted PeptideX2-13]”, the Solubility entry in data set [1] (buffer, at 2 mg/ml) is “Soluble in buffer”. Turning to GKAYLQMNAKG [SEQ ID NO: 13], in data set [1] (buffer, at 2 mg/ml), the Solubility result was “Soluble in buffer”.

In the case of KSIAYLQMNSLK [PeptideX2 (KSIAYLQMNSLK)], in the data set with human TLR2 [5], the binding result was “binds”.

B1: reverse modified peptideX2 (NMQLY) (peptide)
peptide: NMQLY
notes: Printed as NMQLY; also called reverse core; reverse-peptideX2
B1: in the data set with human TLR2 [6], the binding result is given as “binds”.
